Results from patent publication US8124111B2, “Immunomodulation by altering sphingosine 1-phosphate lyase (SPL) activity” (Children's Hospital & Research Center at Oakland, priority 2005, dated 2012).

Key:
SPL [1] = molecular target: T1, SPL (Homo sapiens, UniProt O95470); assay: Inhibition of SPL activity in vitro (whole cell extracts of HEK293 cells with human SPL adenoviral construct); format: biochemical; design: expressed in transfected cells; host or cells: HEK293 infected with adenoviral vector
T1 sequence (O95470 1-568): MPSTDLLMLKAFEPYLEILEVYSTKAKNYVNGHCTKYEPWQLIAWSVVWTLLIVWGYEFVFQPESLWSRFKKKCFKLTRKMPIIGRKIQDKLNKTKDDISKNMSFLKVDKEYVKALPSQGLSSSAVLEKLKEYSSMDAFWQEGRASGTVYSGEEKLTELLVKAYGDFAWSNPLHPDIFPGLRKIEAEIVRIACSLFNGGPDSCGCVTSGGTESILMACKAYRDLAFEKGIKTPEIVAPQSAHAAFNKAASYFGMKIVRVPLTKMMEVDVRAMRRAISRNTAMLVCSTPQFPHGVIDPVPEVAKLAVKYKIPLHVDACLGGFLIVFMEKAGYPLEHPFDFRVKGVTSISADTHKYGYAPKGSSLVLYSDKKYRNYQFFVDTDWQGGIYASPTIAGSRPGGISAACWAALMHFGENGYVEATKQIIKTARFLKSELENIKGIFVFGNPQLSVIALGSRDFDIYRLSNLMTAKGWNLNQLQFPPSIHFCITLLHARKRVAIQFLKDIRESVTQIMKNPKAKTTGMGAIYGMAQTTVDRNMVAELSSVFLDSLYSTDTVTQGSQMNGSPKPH
Protocol: Various concentrations of FTY720 or its phosphorylated derivative (FTY720P) were incubated for 30 minutes on ice with whole cell extracts containing high SPL activity by virtue of a human SPL adenoviral expression construct. SPL activity was determined. (A) FTY720; (B) FTY720-P.
(§1) SPL enzyme assay: Tissues were homogenized by sonication in 9 volumes of ice-cold homogenization buffer (5 mM MOPS pH 7.5, 1 mM DTT, 1 mM EDTA, 0.25 M sucrose, and 5 micrograms/ml each chymostatin, leupeptin, pepstatin A and antipain). SPL assays were conducted using 50 micrograms protein per assay and radioactive [4,5 ^3H]DHS1P substrate, as described previously (Reiss et al., (2004) J Biol Chem 279, 1281-1290). For in vitro FTY720 and FTY720-P experiments, drug was incubated with whole cell extracts prepared from HEK293 cells infected with an adenoviral vector expressing human SPL. These extracts contained approximately 200 picomoles/mg protein/minute SPL activity. Drug was incubated with extracts for 30 minutes, followed by addition of extracts to reaction buffer and substrate to initiate the reaction.
Although treatment with FTY720 was associated with low (nanomolar) circulating drug levels, it was possible that local concentrations within cells and subcellular compartments may have been considerably higher, since FTY720 has been reported to be actively transported into cells by the actions of drug transporters that recognize long chain bases (Honig et al., (2003) J Clin Invest 111, 627-637).

[2] = single dose administration; cited from earlier work
SPL [3] = molecular target: T2, SPL (Mus musculus, UniProt Q8R0X7); assay: SPL activity in thymic tissue after FTY720 administration in vivo; design: species or system FVB mice; details: for SPL enzyme inhibition in tissue homogenates: animals treated with FTY720 for 24 hours
T2 construct: from tissue; host or cells: thymus of FVB mice
T2 sequence (Q8R0X7 1-568): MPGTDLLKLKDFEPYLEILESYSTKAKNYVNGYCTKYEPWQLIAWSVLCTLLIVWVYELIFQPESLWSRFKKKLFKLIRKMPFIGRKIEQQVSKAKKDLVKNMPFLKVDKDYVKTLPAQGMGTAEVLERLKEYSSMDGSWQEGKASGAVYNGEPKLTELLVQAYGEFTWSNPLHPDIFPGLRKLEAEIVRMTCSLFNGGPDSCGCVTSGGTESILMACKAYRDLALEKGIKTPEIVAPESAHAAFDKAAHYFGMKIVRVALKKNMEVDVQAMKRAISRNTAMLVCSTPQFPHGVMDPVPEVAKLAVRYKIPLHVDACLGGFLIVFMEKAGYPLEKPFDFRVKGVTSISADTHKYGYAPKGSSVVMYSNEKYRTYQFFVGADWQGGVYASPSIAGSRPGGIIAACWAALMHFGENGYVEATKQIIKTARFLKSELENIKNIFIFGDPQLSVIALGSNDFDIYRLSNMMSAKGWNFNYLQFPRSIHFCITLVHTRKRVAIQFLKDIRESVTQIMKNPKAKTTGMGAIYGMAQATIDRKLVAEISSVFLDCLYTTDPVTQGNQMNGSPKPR
Protocol: One mg/kg FTY720 was administered by peritoneal injection to FVB mice at time zero. Mice were euthanized at the indicated times, and SPL activity in thymic tissue was determined.
(§2) Drug treatments and leukocyte/lymphocyte counts: Four-week old FVB or C3H mice were obtained from Charles River Laboratories (Wilmington, Mass.). Animals were maintained in a pathogen-free facility in microisolator cages. Mice were anaesthetized with isoflurane inhalation, and a single dose of FTY720 (at 1 or 3 mg/kg) or GT11 (at 1, 10 or 100 mg/kg) in sterile water was injected intraperitoneally at time zero. Blood counts were determined by Coulter counter (Coulter Instruments, Hialeah, Fla.) and by manual differential counting. Mice were euthanized by CO2 inhalation at various time points post-injection, followed by tissue harvest. All animal studies were performed in accordance with approved CHORI IACUC protocols.
as §1
(§3) Inhibition of SPL by FTY720 in vivo—The effect on SPL enzyme activity of FTY720 administration was tested. Four-week old female FVB mice were given 1 mg/kg FTY720 by intraperitoneal injection, and tissue SPL activity in thymus was assessed over time. […] SPL inhibition occurred concomitantly with lymphopenia, and was consistent with the timing of lymphopenia reported previously (Chiba et al., (1998) J Immunol 160, 5037-5044) (Table 1).
To address whether the inhibition of SPL activity in homogenates of tissues isolated from FTY720 treated animals was reversible, tissue SPL activity was measured in the presence of increasing amounts of non-radiolabeled DHS1P substrate.

Lymphocytes = assay: Lymphocyte counts after FTY720 treatment; format: in vivo, mice
Protocol: as §2, §3

[4] = 30 minutes incubation with extracts
[5] = 1 mg/kg FTY720 intraperitoneal, FVB mice, thymus

## CCCCCCCCc1ccc(CCC(N)(CO)CO)cc1 [FTY720]
SPL [1]
  dose dependence of SPL inhibition in vitro: dose-dependent
SPL [1]; [4]
  concentration of maximal effect on SPL activity in vitro: 30 µM
  lowest concentration with effect on SPL activity in vitro: 300 nM
[2]
  elimination half-life: long
SPL [3]; [5]
  earliest time at which inhibition of SPL was noted: 12 h
  time by which SPL inhibition began to reverse: ≤ 48 h
SPL [3]; 10 nmol substrate (standard assay conditions)
  SPL enzyme inhibition in tissue homogenates: 21%
SPL [3]; 40 nmol unlabeled substrate
  SPL enzyme inhibition in tissue homogenates: 25%
SPL [3]; 2-fold increase in unlabeled DHS1P substrate
  SPL enzyme inhibition in tissue homogenates: 14%
SPL [3]; mouse, ip, 1 mg/kg FTY720 intraperitoneal, FVB mice, thymus, at 36 hours, read-out: peak inhibition of SPL activity
  inhibition at 1 mg/kg: ~40%
Lymphocytes; 24 hours after FTY720
  Lymphocytes: 2.2 1000/μL
Lymphocytes; 48 hours after FTY720
  Lymphocytes: 3.2 1000/μL
Lymphocytes; 72 hours after FTY720
  Lymphocytes: 2.0 1000/μL
